Data reported in PubChem BioAssay (NCI).
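Dose response: 5 concentrations. Exposure: 48 h. Format: 96-well plates. Endpoint: linear interpolation; highest concentration if not reached. TGI marks complete inhibition of growth.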 Where a SMILES comes first, the peptide text is derived from it. The star is where a group is joined. Boc = CC(C)(C)OC(=O)*

Assays:
Assay in all cases: DTP human tumour cell line panel, 48 h
A549 NSCLC = test system: A549 NSCLC
HCT-116 colon = test system: HCT-116 colon
HL-60(TB) leukemia = test system: HL-60(TB) leukemia
HOP-62 NSCLC = test system: HOP-62 NSCLC
K-562 leukemia = test system: K-562 leukemia
NCI-H522 lung = test system: NCI-H522 lung
OVCAR-3 ovarian = test system: OVCAR-3 ovarian
RPMI-8226 leukemia = test system: RPMI-8226 leukemia
SF-268 CNS = test system: SF-268 CNS
SK-MEL-5 melanoma = test system: SK-MEL-5 melanoma
SN12C renal = test system: SN12C renal
SNB-19 CNS = test system: SNB-19 CNS
SNB-75 CNS = test system: SNB-75 CNS
SW-620 colon = test system: SW-620 colon
TK-10 renal = test system: TK-10 renal
U251 CNS = test system: U251 CNS
UACC-62 melanoma = test system: UACC-62 melanoma
PC-3 prostate = test system: PC-3 prostate
T-47D breast = test system: T-47D breast
DU-145 prostate = test system: DU-145 prostate

Row | Compound | TGI (A549 NSCLC) [µM] | TGI (HCT-116 colon) [µM] | TGI (HL-60(TB) leukemia) [µM] | TGI (HOP-62 NSCLC) [µM] | TGI (K-562 leukemia) [µM] | TGI (NCI-H522 lung) [µM] | TGI (OVCAR-3 ovarian) [µM] | TGI (RPMI-8226 leukemia) [µM] | TGI (SF-268 CNS) [µM] | TGI (SK-MEL-5 melanoma) [µM] | TGI (SN12C renal) [µM] | TGI (SNB-19 CNS) [µM] | TGI (SNB-75 CNS) [µM] | TGI (SW-620 colon) [µM] | TGI (TK-10 renal) [µM] | TGI (U251 CNS) [µM] | TGI (UACC-62 melanoma) [µM] | TGI (PC-3 prostate) [µM] | TGI (T-47D breast) [µM] | TGI (DU-145 prostate) [µM]
1 | Nc1ccc2ncc(Nc3ccc(F)cc3)nc2c1 | > 100 | > 100 | > 100 | > 100 | > 100 | > 100 | > 100 | > 100 | > 100 | > 100 | > 100 | > 100 | > 100 | > 100 | > 100 | > 100 |  |  |  | 
2 | Nc1ccc(C(=O)NN2C(=O)C(Cl)C2c2cc(Br)cc(Br)c2O)cc1 (centres undefined) | 91.1 | > 100 | > 100 | > 100 |  | > 100 |  | > 100 | 41.6 | 65.5 |  | > 100 | > 100 | > 100 | > 100 | > 100 | 24.8 |  |  | 
3 | COC(=O)C(Cc1c[nH]c2ccccc12)NC(=O)C(Cc1c[nH]c2ccccc12)NC(=O)C(Cc1c[nH]c2ccccc12)NC(=O)OC(C)(C)C (stereo not drawn) (Boc-Trp-Trp-Trp-OMe; configuration not given here) | > 100 | 29.8 | 47.4 | 32.7 | > 100 |  |  | 58.6 |  | > 100 | 39.4 | 47 | 42 | 40.7 | 46.7 | 32.4 | 38.3 | 30 | 29.4 | 
4 | CCOC(=O)CCC(NC(=O)c1ccc(Nc2cnc3cc(C(F)(F)F)ccc3n2)cc1)C(=O)OCC (centres undefined) | > 100 | > 100 | > 100 | 34.7 | > 100 | > 100 | > 100 | > 100 | > 78.4 | > 100 | > 100 | > 47.8 | 5.91 | > 100 | > 100 | 15.3 |  |  | > 100 | > 100
5 | O=S(Nc1ccccc1)c1ccc(-c2ccccc2)cc1 (centres undefined) | > 100 | > 100 | > 100 | > 100 | > 100 | > 100 | > 100 | > 100 | > 100 | > 100 | > 100 | > 100 |  | > 100 | > 100 | > 100 | > 100 |  | > 100 | > 100
6 | COc1cc(OC)cc(-n2c(N)c(-c3nc4ccccc4s3)c3ccc([N+](=O)[O-])cc3c2=O)c1 |  | > 100 | 13 |  | > 100 | > 100 |  | > 100 | > 100 | > 100 | 82.8 | > 100 | > 100 | > 100 | 38.8 | > 100 | > 100 |  | > 100 | > 100
7 | O=C(CSc1nnc(Cc2ccccc2)o1)Nc1ccccc1Cl | > 100 | > 100 | > 100 | > 100 | > 100 | > 100 | > 100 | > 100 | > 100 | > 100 | > 100 | > 100 |  | > 100 | > 100 | > 100 | > 100 |  |  | 
8 | CC1=CSC(O)(c2ccc(Cl)cc2)c2noc(=O)n21 (centres undefined) | > 100 | > 100 |  | > 100 | > 100 |  | > 100 | > 100 | > 100 | > 100 | > 100 | > 100 | > 100 | > 100 | > 100 |  | > 100 | > 100 | > 100 | > 100
9 | C[n+]1c2ccccc2c(C(=O)NC(CCCN=C(N)N)C(=O)O)c2ccccc21 (centres undefined) | > 100 | > 100 |  | > 100 | > 100 |  | > 100 | > 100 | > 100 | > 100 | > 100 | > 100 | > 100 | > 100 | > 100 | > 100 | > 100 | > 100 | > 100 | > 100
10 | O=[N+]([O-])c1cc2c(cc1O)[nH]c1cccc([N+](=O)[O-])c12 | > 100 | > 100 | > 100 | > 100 | > 100 | > 100 | > 100 | > 100 | > 100 | > 100 | > 100 | > 100 | > 100 | > 100 | > 100 |  |  |  |  | 
11 | CN(C)CCn1c(=O)oc2cc(C(=O)CN3CCOCC3)ccc21 |  | > 100 | > 100 | > 100 | > 100 |  | > 100 | > 100 | > 100 | > 100 | > 100 | > 100 | > 100 | > 100 | > 100 | > 100 | > 100 | > 100 |  | > 100
12 | CC(=O)/C=C(/C=N/O)c1ccccc1 | > 100 | > 100 |  | > 100 | > 100 | > 100 | > 100 | > 100 | > 100 | > 100 | > 100 | > 100 | > 100 | > 100 | > 100 | > 100 | > 100 | > 100 | > 100 | 
13 | Cc1ccc(/C=C/C(=O)C(C)C)cc1 | > 100 |  |  |  | > 100 | > 100 | 83.1 | 72.7 | > 100 | > 100 |  | > 100 | > 100 | > 100 | > 100 | > 100 | > 100 |  |  | 
14 | Cc1ccc(/C=N/Nc2cc(C)c3ccccc3n2)s1 | 40.6 | > 100 | > 100 | 30.8 | 39.2 |  | 7.93 | 29.1 | > 100 | 75.2 | 41.1 | > 100 | > 100 | > 100 | > 100 | 43 | > 100 | 31.1 | > 100 | 
15 | COc1ccc([C@@H]2CC(=O)NCCCNCCCCNCCCN2)cc1 | > 100 | > 100 | > 100 | > 100 | > 100 | > 100 |  | > 100 | > 100 | > 100 | > 100 | > 100 | > 100 | > 100 | > 100 | > 100 | > 100 |  |  | 
16 | Fc1ccc2c(c1)SC1Oc3ccccc3-c3c1c-2nn3-c1ccccc1 (centres undefined) | > 100 | > 100 | > 100 | > 100 | > 100 | > 100 | > 100 | > 100 | > 100 |  |  |  | > 100 | > 100 | > 100 | > 100 |  |  |  | 
17 | COc1cc2c(cc1OC)C(=O)Cc1ccc3c(c1CNCC2)OCO3 | > 100 | > 100 |  | > 100 | > 100 | > 100 | > 100 | > 100 | > 100 | > 100 | > 100 | > 100 | > 100 | > 100 | > 100 | > 100 | > 100 |  |  | 
18 | COc1cc(C(C#N)NNC(=O)Cc2ccccc2)cc(OC)c1OC (centres undefined) | > 100 | > 100 | > 100 | > 100 | > 100 | > 100 | > 100 | > 100 | > 100 | > 100 | > 100 |  | > 100 | > 100 | > 100 | > 100 | > 100 |  |  | 
19 | CCCC(=O)OCC1(CO)C/C(=C/CC(C(C)C)C(C)C)C(=O)O1 (centres undefined) | > 100 | > 100 |  | > 100 |  | > 100 | > 100 |  | > 100 | > 100 | > 100 | > 100 | > 100 | > 100 | > 100 | > 100 | > 100 | > 100 | > 100 | > 100
20 | CC(OC1CC(=O)CC2C(=O)C=CC(=O)C12)c1ccccc1 (centres undefined) | 40.2 | 22.4 | 20 | > 58.8 | > 100 | 2.98 | 33.3 | 58.5 | 40.9 | 33.6 | 33.2 | > 55.9 | > 57.7 | 27.3 | 31.6 | 27.9 | 29.7 |  |  | 
21 | COc1ccc(/C=N/NC(=O)c2ccccc2Nc2ccccc2C(=O)N/N=C/c2ccc(OC)cc2)cc1 | > 100 | > 100 |  | > 100 | > 100 |  | > 100 | > 100 | > 100 | > 100 | > 100 | > 100 | > 100 | > 100 | > 100 | > 100 | > 100 | > 100 | > 100 | > 100
22 | COC(=O)/C(=N\N)C(C(=O)C(=O)Nc1cccc([N+](=O)[O-])c1)c1nc2ccc(C(=O)c3ccccc3)cc2[nH]c1=O (centres undefined) | > 100 | > 100 | > 100 | > 100 |  | > 100 | > 100 |  | > 100 | > 100 | > 100 | > 100 | > 100 | > 100 | > 100 | > 100 | > 100 | > 100 |  | > 100
23 | CC(C)[C@H]1CO[C@@H]2O[C@H](C)CC(=O)N21 | > 100 | > 100 | > 100 | > 100 | > 100 | > 100 | > 100 | > 100 | > 100 | > 100 | > 100 | > 100 | > 100 | > 100 | > 100 | > 100 | > 100 |  |  | 
24 | CC(C)c1cccc(C(C)C)c1NC(=O)C(=O)CC(=O)CC(c1ccccc1)c1c(O)c2ccccc2oc1=O (centres undefined) | > 100 | > 100 | > 100 | > 100 | > 100 | > 100 | > 100 | > 100 | > 100 | > 100 | > 100 | > 100 |  | > 100 | > 100 |  | > 100 |  |  | 
25 | COc1cc2c(cc1O)[C@H](C)C(c1ccccc1OC)O2 (some centres undefined) | > 100 | 15.4 | 7.5 |  | > 100 | 9.25 | > 100 | 13.9 | > 100 | 19.7 |  | > 100 | 6.48 | 12.2 | > 100 | 8.01 | > 100 |  |  | 
26 | CC(NC1=NCCO1)c1cccs1 (centres undefined) | > 100 | 38.6 | 45.4 | 66.5 | 59.6 |  |  | > 100 | 69.9 | 75.1 | > 100 | 55.9 | > 100 | > 100 | > 100 | 39.6 | 37.3 |  | > 100 | > 100
27 | COC(=O)CCCC(=O)NC1=C(Nc2ccccc2)C(=O)c2ccccc2C1=O | 36.8 | 32.7 | 49.7 |  | 47.3 | 35.3 | 38 | 59.7 | 96.3 |  | 45.1 | 34.6 | 33.8 | 52.4 | 49.7 | 29.3 | 11.9 |  | 64.8 | 29.4
28 | C/C(=N/NC(=S)N(C)CCc1ccccn1)c1cnccn1 | 11.5 | 18 | > 100 | 9.62 | > 100 | 20.8 | 19 | 26.1 | 14.9 | 17.8 | 10 | 19 | 18.4 | 32.2 | 14.8 | 12.3 |  | 16.1 |  | > 32
